Target: T1, human kv2.1 (Homo sapiens, UniProt Q14721)
T1 construct: A HindIII-Notl fragment containing full length 2.1 was isolated from pBS/kv2.1 and subcloned to pcDNA3 for expression; expressed in transfected cells
T1 sequence (Q14721 1-858): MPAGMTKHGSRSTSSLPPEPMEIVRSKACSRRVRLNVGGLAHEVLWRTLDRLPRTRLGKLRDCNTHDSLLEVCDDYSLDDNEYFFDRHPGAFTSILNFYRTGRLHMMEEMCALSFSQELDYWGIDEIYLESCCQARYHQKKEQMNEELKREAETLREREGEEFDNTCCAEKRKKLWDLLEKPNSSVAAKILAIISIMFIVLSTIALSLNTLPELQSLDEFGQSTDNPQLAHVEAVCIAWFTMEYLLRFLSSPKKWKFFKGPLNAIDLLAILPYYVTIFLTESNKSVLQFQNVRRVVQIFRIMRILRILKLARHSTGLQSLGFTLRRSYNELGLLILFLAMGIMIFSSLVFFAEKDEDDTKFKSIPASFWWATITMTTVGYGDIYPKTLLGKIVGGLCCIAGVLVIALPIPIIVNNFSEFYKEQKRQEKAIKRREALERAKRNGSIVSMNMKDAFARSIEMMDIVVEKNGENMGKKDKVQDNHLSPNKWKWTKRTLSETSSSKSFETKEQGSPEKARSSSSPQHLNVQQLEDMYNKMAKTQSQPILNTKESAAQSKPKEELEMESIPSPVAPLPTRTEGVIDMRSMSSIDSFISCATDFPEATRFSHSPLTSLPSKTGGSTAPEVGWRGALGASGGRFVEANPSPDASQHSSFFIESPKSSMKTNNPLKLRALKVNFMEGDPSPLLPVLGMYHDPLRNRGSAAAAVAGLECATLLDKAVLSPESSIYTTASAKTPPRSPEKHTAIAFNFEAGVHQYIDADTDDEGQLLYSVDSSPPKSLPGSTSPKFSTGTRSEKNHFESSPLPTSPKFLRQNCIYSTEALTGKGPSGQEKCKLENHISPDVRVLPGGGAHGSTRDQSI
Experiment: Whole cell patch clamp block of Kv2.1 in stably expressing CHO cells
Assay type: cell-based
Conditions: CHO cells stably expressing Kv2.1, whole cell patch clamp
Text: Full length cDNA of human kv2.1 was amplified from human brain polyA RNA by PCR. Oligo primers used for PCR amplification were designed according to the GeneBank accession# X68302 . The sequences of the two primers are: (5′ PCR primer) 5′-[…] (SEQ ID NO: 1), (3′ PCR primer) 5′-[…] (SEQ ID NO: 2). The cDNA was subcloned into pBS and sequenced. A HindIII-Notl fragment containing full length 2.1 was isolated from pBS/kv2.1 and subcloned to pcDNA3 for expression. The clone was transferred to pcDNA3 under the CMV promotor. […] Specifically, 1.5 μg of plasmid DNA (1.2 μg of Kv2.1 Plasmid and 0.3 μg of GFP plasmid Green Lantern™ (GIBCO)) was pre-incubated with 100 μl of DMEM/F12 and 12 μl of lipofectamine for a minimum of 15 minutes. Following incubation 1.4 ml of DMEM/F12 was added and the mixture overlayed on CHO cells (70-90% confluent) in a 6 well tray (1.5 ml/well). After 6-8 hours incubation an additional 1.5 ml of DMEM/F12 media containing 10% FBS was added to the transfection reaction. After a further overnight incubation the cells were removed from the 6 well plate with […] and plated at single cell density (10% Confluency) in 6 well plates contianing 25 mm glass coverslips. After overnight incubation, GFP containing cells were patched for current.
Stable CHO lines were prepared by using the same transfection protocol as above excluding the GFP DNA. […]

Compound	IC50 [nM]
CN1C[C@@H]2CN(CCCCc3ccc4c(c3)OCCO4)C[C@H](C1)[C@@H]2OC(=O)c1ccc(Cl)cc1 [Example 4]	~300
hanatoxin (ECRYLFGGCKTTSDCCKHLGCKFRDKYCAWDFTFS) [reference compound]	~60

Source: patent US6589934B1, “Kv2.1 antagonists” (SmithKline Beecham Corporation, priority 1997, dated 2003)
